Experimental data published in patent US20100298205A1, “METHODS AND COMPOSITIONS FOR THE TREATMENT OF CONDITIONS RELATED TO GASTRIC ACID SECRETION” (priority 2004, published 2010).
Where two headings read alike, the source gives them in different places.

What was measured:
[1] = test system: Caco-2 cells; assay: Caco-2 membrane permeability / bi-directional transport (Papp); assay type: in vitro ADME, human; details: apical to basolateral, 10 μM, 37° C.
Method: (§1) Determination of membrane permeability in all examples described herein was accomplished by the following procedure. This procedure is also used to determine whether a given prodrug falls within the scope of those claims given herein which relate to membrane permeability.
(§2) DMEM was equilibrated as a transport buffer in 37° C. water bath an hour before experiment. The cells were then equilibrated in transport buffer for 1 hr at 37° C.
(§3) Dosing solution (10 μM) was prepared by adding a 20 μL aliquot of a 10 mM stock solution of the prodrug to 20 mL of transport buffer.
(§4) Transport buffer was removed from both apical and basolateral compartment of filters. […] […] Fresh transport buffer (400 μL) was added back to the basolateral compartment, and the fluid was thoroughly mixed.
(§5) Lucifer yellow (LY) was used as a paracellular permeability reference standard to determine integrity of cell layers used in the experiments. LY transport in the apical to basolateral direction was carried out in the same manner as described above. Fluorescence level in basolateral fluid sampled at 5, 20, and 60 min post dose was determined using Fluostar Galaxy (BMG Labtechnologies, Durham, N.C.) at excitation/emission wavelengths of 485/520 nm. A standard curve covering the range from 0.002 to 0.5 mg/mL is constructed to quantify the amount of LY in the transport sample to calculate permeability coefficient (Papp).

[2] = Pharmacokinetics in rats after oral or intravenous administration; assay type: in vivo, rats (Sprague-Dawley); design: key to Rat T1/2 Prodrug: NC: plasma concentration of prodrug was too low to calculate half-life, or undetected; Rat T1/2 PPI: unit not given here; details: oral, parenthesis = standard deviation; for Rat T1/2 Prodrug: systemic half-life of intact prodrug; for Rat T1/2 PPI: systemic half-life of the proton pump inhibitor
Method: (§6) Blood concentrations of the compounds omeprazole, lansoprazole, pantoprazole, rabeprazole, and test compounds were quantified using an achiral liquid chromatography tandem mass spectrometry method (LC-MS/MS). Systemic pharmacokinetic parameters were determined for omeprazole or lansoprazole using non-compartmental analysis in Watson® version 6.3, available from InnaPhase Corporation, Philadelphia, Pa.

[3] = Pharmacokinetics in dogs after oral or intravenous administration; assay type: in vivo, dogs (beagle); design: key to Dog T1/2 Prodrug: NC: plasma concentration of prodrug was too low to calculate half-life, or undetected; details: for Dog T1/2 Prodrug / Dog T1/2 PPI: oral, parenthesis = standard deviation; for Dog T1/2 Prodrug: systemic half-life of intact prodrug; for Dog T1/2 PPI: systemic half-life of the proton pump inhibitor; for t1/2: systemic half-life of PPI in dogs after oral administration
Method: as §6

[4] = Caco-2 membrane permeability / bi-directional transport (Papp); assay type: in vitro ADME, human; details: human, Caco-2 cells
Method: as §1, §2, §3, §4, §5

[5] = test system: MDR1; assay: MDR1-MDCK bi-directional transport (Papp); assay type: in vitro ADME; details: dog, MDR1-MDCK cells
Description: as §1
• Test System: Cultured Caco-2 cells and MDR1-MDCK cells • Seeding Density: 2×10^5 cells/cm^2 in Costar 12 well Transwell™plates • Culture Age: 17-21 days post seeding for Caco-2 cells, 2-3 days post seeding for MDR1-MDCK cells • Source: American Type Culture Collection, Manassas, Va. […]
The apparent permeability coefficient (Papp, cm/sec), otherwise known herein as the membrane permeability, is determined from the following relationship: […]
The transport rate J, is calculated as the slope of the linear regression fit for the transport amount over time data using Microsoft Excel® 97 SR-2 (Microsoft Corp. Redmond, Wash.),
Lucifer yellow (LY) was used as a paracellular permeability reference standard to determine integrity of cell layers used in the experiments. […] Fluorescence level in basolateral fluid sampled at 5, 20, and 60 min post dose was determined using Fluostar Galaxy (BMG Labtechnologies, Durham, N.C.) at excitation/emission wavelengths of 485/520 nm. […]

[6] = somewhat buffer dependent, Kromer et al., Ekpe et al., cited from earlier work
[7] = read-out: Ratio Papp BA/Papp AB

Row | Permeability [1] | Rat T1/2 Prodrug [2] | Rat T1/2 PPI [2] | Dog T1/2 Prodrug [3] | Dog T1/2 PPI [3] | t1/2 [3] | SMILES | other results
1 | 0.23 ×10⁻⁶ cm/s | NC | 1.80 (1.20) | NC | 64.8 min | 66 min | COc1ccc(S(=O)(=O)n2c([S+]([O-])Cc3nccc(OCC(F)(F)F)c3C)nc3ccccc32)cc1C(=O)O (stereo not drawn) [Compound 8] | 
2 |  |  |  | NC | 0.989 (0.307) |  | Cc1c(OCC(F)(F)F)ccnc1C[S+]([O-])c1nc2ccccc2n1S(=O)(=O)c1ccc(OCC(=O)O)cc1 (stereo not drawn) [Compound 10] | 
3 |  |  |  | NC | 55.4 min |  | Cc1c(OCC(F)(F)F)ccnc1C[S+]([O-])c1nc2ccccc2n1S(=O)(=O)c1ccc(CC(=O)O)cc1C(C)C (stereo not drawn) [Compound 15] | 
4 | 0.34 ×10⁻⁶ cm/s | NC | 0.341 (0.151) | NC | 53.6 min | 53.4 min | Cc1c(OCC(F)(F)F)ccnc1C[S+]([O-])c1nc2ccccc2n1S(=O)(=O)c1ccc(CC(=O)O)cc1 (stereo not drawn) [Compound 9] | 
5 |  | NC | 2.35 (1.22) | 7.32 min | 106 min |  | Cc1ccc(C(=O)O)cc1S(=O)(=O)n1c([S+]([O-])Cc2nccc(OCC(F)(F)F)c2C)nc2ccccc21 (stereo not drawn) [Compound 13] | 
6 |  |  |  |  |  |  | COc1ccc2[nH]c([S+]([O-])Cc3ncc(C)c(OC)c3C)nc2c1 (stereo not drawn) [Omeprazole] | Papp A→B at 60 min, 10 μM ([4]; A to B, 10 μM): 12.6 ×10⁻⁶ cm/s; Papp B→A at 60 min, 10 μM ([4]; B to A, 10 μM): 16.3 ×10⁻⁶ cm/s; efflux ratio at 60 min, 10 µM [4, 7]: 1.29; Papp B→A at 60 min, 10 μM ([5]; B to A, 10 μM): 17.1 ×10⁻⁶ cm/s; efflux ratio at 60 min, 10 µM [5, 7]: 1.52; typical half-life (stability) ([6]; pH 5): about 1 hour; typical half-life (stability) ([6]; pH 7): about 40 hours
7 |  |  |  | NC | 55.9 min |  | Cc1c(OCC(F)(F)F)ccnc1C[S+]([O-])c1nc2ccccc2n1S(=O)(=O)c1ccc(CC(=O)O)c(CC(=O)O)c1 (stereo not drawn) [Compound 12] | 
8 | 0.16 ×10⁻⁶ cm/s | NC | 1.93 (1.41) | 12.4 min | 53.6 min | 53.4 min | Cc1c(OCC(F)(F)F)ccnc1C[S+]([O-])c1nc2ccccc2n1S(=O)(=O)c1cccc(C(=O)O)c1 (stereo not drawn) [Compound 7] | 
9 |  |  | 0.536 (0.217) | 7.08 min | 83.4 min |  | COc1ccc(C(=O)O)cc1S(=O)(=O)n1c([S+]([O-])Cc2nccc(OCC(F)(F)F)c2C)nc2ccccc21 (stereo not drawn) [Compound 14] | 
10 |  | NC | 0.933 (1.009) | NC | 0.873 (0.288) |  | Cc1c(OCC(F)(F)F)ccnc1C[S+]([O-])c1nc2ccccc2n1S(=O)(=O)c1ccc(OCC(C)(C)C(=O)O)cc1 (stereo not drawn) [Compound 11] | 
